Assay [1] has as its system GEF. Put plainly: GEF-activity in membrane fractions of HpMec cells (RhoGEF Exchange Assay). The assay is classed as cell-based. The note with it: HpMec, no stimulus, peptide 50 μg/ml. As for the experimental part:
(§1) To measure the GEF-inhibitory effect, the following cell lines were used: Caco-2 (epithelial cells from adeno-carcinoma), ECV304 (epithelial cells from bladder carcinoma) and HpMec (endothelial cells, immortalized pulmonary micro-vascular cells). All cells were grown at standard conditions (37° C., 5% CO2 and 95% relative humidity (rH)). Culture Medium used for Caco-2: DMEM+1 mM sodium pyruvate+20% FCS+1% Penicillin Streptomycin; for ECV 304: RPMI 1640+10% FCS+1% Penicillin Streptomycin; and for HpMec: IMDM+25 mM Hepes+10% Human Serum+1% Penicillin Streptomycin+1% L-Glutamine+ECGS/Heparin 2 ml. 4 h before the experiment, cells were starved by serum withdrawal. To induce GEF-activity, cells were stimulated with thrombin, lipopolysaccharide (LPS) or PMA for the indicated time in presence or absence of 50 μg/ml XIB1-a or XIB1-b. After stimulation, membrane fractions were prepared by using the commercial available “Compartemental Protein Extraction Kit” from Biochain institutes. Membrane fractions were prepared according to the manufacturer instructions. GEF-activity in membrane lysates was determined by using “RhoGEF Exchange Assay Biochem Kit” from Cytoskeleton Inc. according to manufacturer instructions. GEF-activity was measured as fluorescence at using the Fluoroskan Ascent FL 2.6 from Thermo Electron Corporation. The excitation Filter wavelength was set at 355 nm and the emission filter wavelength at 460 nm.

The subject of assay [2] is Phosphorylated Myosin Light Chain (MLC) and actin stress fibers. Put plainly: MLC phosphorylation and actin stress fiber formation in HpMec cells (microscopy score). The assay is classed as cell-based. Conditions: no stimulus, peptide 50 μg/ml. The method, then: (§2) To measure MLC phosphorylation and actin stress fiber formation, the following cell lines were used: Caco-2, ECV304 and HpMec. All cells were grown at standard conditions (37° C., 5% CO2 and 95% rH). Culture Medium used: for Caco-2: DMEM+1 mM sodium pyruvate+20% FCS+1% Penicillin Streptomycin; for ECV 304: RPMI 1640+10% FCS+1% Penicillin Streptomycin; and for HpMec: IMDM+25 mM Hepes+10% Human Serum+1% Penicillin Streptomycin+1% L-Glutamine+ECGS/Heparin 2 ml. 4 h before the experiment, cells were starved by serum withdrawal. To induce GEF-activity, cells were stimulated with thrombin, LPS or PMA for the indicated time in presence or absence of 50 μg/ml XIB1-a or XIB1-b. After stimulation, cells were fixed using 4% PFA. Phospho MLC was detected by using the “rabbit anti phosphor-myosin light chain antibody” from Chemicon in a concentration of 3 μl/ml in PBS (Gibco) supplemented with 0.1% Triton X-100. As detection antibody, the Alexa 448 tagged “anti Rabbit IgG Antibody” from Invitrogen was used in a concentration of 0.5 μl/ml in PBS (Gibco) supplemented with 0.1% Triton X-100. Aktin was detected using TRITC-labeled Phalloidin in a concentration of 0.5 μl/ml in PBS (Gibco) supplemented with 0.1% Triton. Stained cells were analyzed by using a Zeiss Laser Scan microscope. Evaluation of the cyto-skeletal activation was performed by 2 independent observers that were blinded to the conditions. Evaluation criteria were set as follows:
(§3) Actin: parallel actin bundles absent=0; distinct bundle formation=1; prominent parallel bundles=2; Phospho-MLC: present at cell poles=0; slight co-localization with actin bundles=1; prominent co-localization with actin bundles=2

Assay [3] relates to GTP-bound RhoA. Put plainly: GTP-associated active RhoA in HpMec membrane fraction (western blot). The assay is classed as cell-based. The note with it: HpMec, no stimulus, peptide 50 μg/ml. The method, then:
(§4) To measure the GTP-associated active RhoA, the following cell lines were used: Caco-2, ECV304 and HpMec. All cells were grown at standard conditions (37° C., 5% CO2 and 95% rH). 4 h before the experiment, cells were starved by serum withdrawal. To induce GEF-activity, cells were stimulated with thrombin, LPS or PMA for the indicated time in presence or absence of 50 μg/ml XIB1-a or XIB1-b. After stimulation, membrane fractions were prepared by using the commercial available “Compartemental Protein Extraction Kit” from Biochain Institutes. Membrane fractions were prepared according to the manufacturer instructions. The membrane fraction was separated on 15% polyacrylamide gel according to standard procedures of gel electrophoresis. The gels were afterwards blotted on a nitrocellulose membrane according to standard procedures of western blotting. GTP-bound RhoA was detected using RhoA-GTP monoclonal antibody from NewEast Inc. in a dilution of 1:5000. Protein bands were analyzed with the Dolphin-1D Gel analysis system (Wealtec).

For assay [4], the system named is GEF. Put plainly: GEF-activity in membrane fractions of ECV304 cells (RhoGEF Exchange Assay). The assay is classed as cell-based. The note with it: ECV 304, no stimulus, peptide 50 μg/ml. As for the experimental part: as §1
Assay [5] deals with Phosphorylated Myosin Light Chain (MLC) and actin stress fibers. Put plainly: MLC phosphorylation and actin stress fiber formation in Caco-2 cells (microscopy score). The assay is classed as cell-based. Conditions: CaCo-2, no stimulus, peptide 50 μg/ml. The method, then:
as §2, §3

The test system of assay [6] is GEF. Put plainly: GEF-activity in membrane fractions of Caco-2 cells (RhoGEF Exchange Assay). The assay is classed as cell-based. Conditions: CaCo-2, no stimulus, peptide 50 μg/ml. The method, then:
as §1

The test system of assay [7] is Phosphorylated Myosin Light Chain (MLC) and actin stress fibers. Put plainly: MLC phosphorylation and actin stress fiber formation in ECV304 cells (microscopy score). Conditions: ECV 304, no stimulus, peptide 50 μg/ml. The assay is classed as cell-based. As for the experimental part: as §2, §3
A further assay has as its system LPS induced lung injury. Put plainly: LPS induced lung injury, bronchoalveolar lavage. In kind it is in vivo. Conditions: mice, n = 20. The method, then:
Male C57Bl/6 Mice (Charles River, Germany) were kept at the animal facility of the Medical University of Vienna, feed with standard diet and water was provided ad libitum. All interventions were performed according to the guide lines of AAALAC (Association for Assessment and Accreditation of Laboratory Animal Care). All experiment were approved by the Ethic committee of the Medical University of Vienna. Mice were anesthetized with isoflouran and treated with 100 ng of LPS (E. coli O55:B5, Sigma Aldrich) intranasally. XIB1-a or XIB1-b was applied either intra-peritoneally (2×2 mg/kg) or via inhalation (2×4 mg/kg), first application was performed concomitantly with LPS administration, the second application was performed 1 h after the LPS inhalation.
The trachea was exposed through a midline incision and canulated with a sterile 20-gauge catheter (BD Venflon™, Becton Dickinson Infusion Therapy, Helsingborg, Sweden). Bilateral broncho-alveolar lavage fluid (BALF) was gained by instilling two 0.5 ml aliquots of sterile saline. Approximately 0.9-1 ml BALF was retrieved per mouse. Total cell numbers were counted from each sample using a hemo-cytometer (Türck chamber), BALF differential cell counts were done on cytospin preparations stained with Giemsa. For protein measurements, BALF was diluted 1:2 in buffer containing 300 mM NaCl, 30 mM Tris, 2 mM MgCl2, 2 mM CaCl2, and Pepstatin A, Leupeptin and Aprotinin (all 20 ng/ml; pH 7.4). Protein levels in BALF were measured using the BCA protein kit according to the manufacturer's instructions (Pierce, Rockford, Ill.).
In addition, the same set-up as described above was used for comparing the impact of XIB1-b compared to Bβ15-42 (PLoS ONE (2009), 4(4): e5391), a peptide derived from fibrin having the sequence […] (SEQ ID NO: 41). Bβ15-42 was added in the same manner as XIB1-b. Again, protein content and cell count of BALF was measured.

In assay [8] the test system is GTP-bound RhoA. Put plainly: GTP-associated active RhoA in ECV304 membrane fraction (western blot). In kind it is cell-based. Conditions: ECV 304, no stimulus, peptide 50 μg/ml. As for the experimental part:
as §4
Background: In western blotting, separated proteins are transferred to a membrane and probed.

In assay [9] the test system is GTP-bound RhoA. Put plainly: GTP-associated active RhoA in Caco-2 membrane fraction (western blot). The assay is classed as cell-based. The note with it: CaCo-2, no stimulus, peptide 50 μg/ml. The method, then:
as §4

[10] abbreviates: 6 h after LPS administration, intratracheal application.

Marks after values point to notes of the source that are not given here.

“GGGGGLSRRIP (/note=“Description of artificial sequence variable insert”) [Control Peptide, random peptide used for control purposes, reference compound]”: the “GEF-activity, relative values compared to unstimulated control (Mean)” value in the assay with GEF [1] (1 min), in the assay on GEF [1] (5 min), in the assay on GEF [4] (1 min), with GEF [4] (5 min), in the assay on GEF [6] (1 min) and with GEF [6] (5 min) was 1 each time. Besides, the “MLC phosphorylation and actin stress fiber formation, evaluation score (Mean)” value in assay [2] (1 min), in assay [2] (5 min), in [5] (1 min), in assay [5] (5 min), in [7] (1 min) and in [7] (5 min) was 0 throughout. In addition, the “GTP-bound RhoA, relative values compared to unstimulated control (Mean)” value in the assay with GTP-bound RhoA [3] (1 min), with GTP-bound RhoA [3] (5 min), with GTP-bound RhoA [8] (1 min), in the assay on GTP-bound RhoA [8] (5 min), in the assay on GTP-bound RhoA [9] (1 min) and in the assay with GTP-bound RhoA [9] (5 min) was 1 each time. The “counts of neutrophils in the BALF (mean +/ SD)” value was 91 +/− 33 neutrophils/ml (× 10^3) in the assay on LPS induced lung injury (comparison with Bβ15-42 (Table 6), 6 h after LPS, intraperitoneal application); 94 +/− 30 neutrophils/ml (× 10^3) in the assay on LPS induced lung injury (comparison with Bβ15-42 (Table 6), 6 h after LPS, intratracheal plus intraperitoneal application); 88 +/− 33 neutrophils/ml (× 10^3) in the assay with LPS induced lung injury (6 h after LPS administration, intraperitoneal application (2×2 mg/kg)); 90 +/− 30 neutrophils/ml (× 10^3) in the assay on LPS induced lung injury (setting [10]). In addition, the “albumine content of BALFs (mean +/ SD)” value in the assay on LPS induced lung injury (comparison with Bβ15-42 (Table 6, last section), 6 h after LPS, intraperitoneal application as printed) came out at 250 ± 25 µg/mL; with LPS induced lung injury (setting [10]), 237 ± 32 µg/mL.

The values are drawn from US9012403B2, “Peptides as active agents to stabilize biological barriers” (XiberScience GmbH, priority 2010, dated 2015).
